# Patent US10231954B2, “Neurodegenerative therapies” (LYTIX BIOPHARMA AS, priority 2014, dated 2019)
# Where two headings read alike, the source gives them in different places.
# Columns and labels:
# Format in all cases: biochemical
# OSR1 = OSR1 (Homo sapiens, UniProt O95747); assay: Kinase profiling OSR1; conditions: for remaining activity at 100 µM: read-out: residual kinase activity, OSR1
# Excerpt: (§1) Any value less that 25 is considered to be highly significant inhibition.
# BRSK1 = biological target: T1, BRSK1 (Homo sapiens, UniProt Q8TDC3); assay: Kinase profiling BRSK1; conditions: for remaining activity at 100 µM: read-out: residual kinase activity, BRSK1
# T1 sequence (Q8TDC3 1-778): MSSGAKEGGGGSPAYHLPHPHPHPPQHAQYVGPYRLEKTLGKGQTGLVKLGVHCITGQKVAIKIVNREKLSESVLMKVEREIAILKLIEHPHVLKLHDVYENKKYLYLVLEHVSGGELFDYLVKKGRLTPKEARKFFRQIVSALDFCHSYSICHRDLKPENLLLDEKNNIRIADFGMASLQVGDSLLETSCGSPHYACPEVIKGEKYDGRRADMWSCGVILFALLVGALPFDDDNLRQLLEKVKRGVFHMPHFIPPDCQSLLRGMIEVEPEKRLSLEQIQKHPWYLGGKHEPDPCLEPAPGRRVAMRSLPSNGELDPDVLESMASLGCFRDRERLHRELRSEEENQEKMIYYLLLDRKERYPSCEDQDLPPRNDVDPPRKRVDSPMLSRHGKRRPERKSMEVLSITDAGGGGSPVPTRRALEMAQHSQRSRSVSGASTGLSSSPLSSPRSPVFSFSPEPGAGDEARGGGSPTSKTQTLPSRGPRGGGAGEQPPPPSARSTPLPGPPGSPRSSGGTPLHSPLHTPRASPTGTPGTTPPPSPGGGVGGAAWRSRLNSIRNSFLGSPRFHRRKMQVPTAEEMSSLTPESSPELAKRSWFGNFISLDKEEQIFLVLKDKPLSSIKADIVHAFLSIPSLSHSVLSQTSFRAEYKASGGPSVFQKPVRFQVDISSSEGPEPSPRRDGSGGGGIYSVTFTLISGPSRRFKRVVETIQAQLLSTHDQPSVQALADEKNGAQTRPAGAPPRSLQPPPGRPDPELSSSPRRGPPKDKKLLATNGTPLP
# Excerpt: as §1
# GCK = biological target: T2, GCK (Homo sapiens, UniProt Q12851); assay: Kinase profiling GCK; conditions: for remaining activity at 100 µM: read-out: residual kinase activity, GCK
# T2 sequence (Q12851 1-820): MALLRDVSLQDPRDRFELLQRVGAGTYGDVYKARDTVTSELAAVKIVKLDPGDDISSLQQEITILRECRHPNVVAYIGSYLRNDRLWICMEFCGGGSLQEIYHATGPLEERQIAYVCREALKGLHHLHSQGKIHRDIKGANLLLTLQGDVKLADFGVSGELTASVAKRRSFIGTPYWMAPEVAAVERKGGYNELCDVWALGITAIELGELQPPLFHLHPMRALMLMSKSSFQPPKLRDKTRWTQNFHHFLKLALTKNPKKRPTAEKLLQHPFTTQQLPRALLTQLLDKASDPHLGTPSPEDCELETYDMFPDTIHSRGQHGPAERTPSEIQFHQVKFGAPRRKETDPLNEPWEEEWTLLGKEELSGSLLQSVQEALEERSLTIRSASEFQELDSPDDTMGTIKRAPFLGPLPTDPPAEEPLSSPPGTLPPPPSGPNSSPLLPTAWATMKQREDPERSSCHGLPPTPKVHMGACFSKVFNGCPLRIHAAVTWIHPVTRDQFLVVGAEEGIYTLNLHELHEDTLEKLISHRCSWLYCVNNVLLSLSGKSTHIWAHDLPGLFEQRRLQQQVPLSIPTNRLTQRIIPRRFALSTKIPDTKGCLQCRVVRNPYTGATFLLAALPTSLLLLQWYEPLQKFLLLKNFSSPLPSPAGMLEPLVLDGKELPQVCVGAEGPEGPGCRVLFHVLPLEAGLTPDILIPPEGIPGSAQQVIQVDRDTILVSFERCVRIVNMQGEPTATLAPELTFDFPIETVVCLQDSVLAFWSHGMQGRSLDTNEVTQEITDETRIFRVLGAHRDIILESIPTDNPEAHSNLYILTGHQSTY
# Excerpt: as §1
# TIE2 = TIE2 (Homo sapiens, UniProt Q02763); assay: Kinase profiling TIE2; conditions: for remaining activity at 100 µM: read-out: residual kinase activity, TIE2
# Excerpt: as §1
# MPSK1 = MPSK1 (Homo sapiens, UniProt O75716); assay: Kinase profiling MPSK1; conditions: for remaining activity at 100 µM: read-out: residual kinase activity, MPSK1
# Excerpt: as §1
# ULK2 = biological target: T3, ULK2 (Homo sapiens, UniProt Q8IYT8); assay: Kinase profiling ULK2; conditions: for remaining activity at 100 µM: read-out: residual kinase activity, ULK2
# T3 sequence (Q8IYT8 1-1036): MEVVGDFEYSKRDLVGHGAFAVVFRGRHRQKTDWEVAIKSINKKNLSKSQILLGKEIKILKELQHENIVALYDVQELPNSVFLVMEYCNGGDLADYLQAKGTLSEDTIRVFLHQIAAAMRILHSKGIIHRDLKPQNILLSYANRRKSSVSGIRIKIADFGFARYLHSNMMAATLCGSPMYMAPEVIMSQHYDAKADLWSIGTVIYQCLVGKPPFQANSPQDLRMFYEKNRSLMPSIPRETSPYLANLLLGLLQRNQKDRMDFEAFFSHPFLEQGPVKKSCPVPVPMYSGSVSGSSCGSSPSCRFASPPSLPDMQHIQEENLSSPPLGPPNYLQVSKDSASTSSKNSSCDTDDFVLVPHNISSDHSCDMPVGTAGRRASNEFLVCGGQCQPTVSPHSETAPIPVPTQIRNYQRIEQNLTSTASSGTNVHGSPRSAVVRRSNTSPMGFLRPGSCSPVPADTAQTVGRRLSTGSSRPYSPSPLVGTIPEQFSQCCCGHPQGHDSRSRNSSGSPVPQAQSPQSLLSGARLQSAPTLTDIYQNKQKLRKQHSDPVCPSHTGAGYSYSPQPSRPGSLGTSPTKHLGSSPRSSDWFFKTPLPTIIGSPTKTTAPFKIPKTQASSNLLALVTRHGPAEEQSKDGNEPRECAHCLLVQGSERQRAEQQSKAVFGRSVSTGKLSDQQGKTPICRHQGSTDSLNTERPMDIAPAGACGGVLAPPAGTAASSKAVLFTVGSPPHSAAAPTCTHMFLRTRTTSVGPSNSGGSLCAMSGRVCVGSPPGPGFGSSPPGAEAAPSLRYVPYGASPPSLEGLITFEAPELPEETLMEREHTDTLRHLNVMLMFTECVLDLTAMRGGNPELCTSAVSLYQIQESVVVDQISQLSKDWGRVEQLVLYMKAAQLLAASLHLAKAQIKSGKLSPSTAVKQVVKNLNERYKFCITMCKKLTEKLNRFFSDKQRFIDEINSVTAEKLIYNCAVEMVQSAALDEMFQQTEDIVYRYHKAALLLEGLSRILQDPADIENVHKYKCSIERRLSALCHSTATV
# Excerpt: as §1
# [1] = 100 micromolar inhibitor concentration, 100 is no change
# [2] = 100 micromolar inhibitor, 100 = no change
# TIE2, sequence (Q02763 23-1124, species assumed): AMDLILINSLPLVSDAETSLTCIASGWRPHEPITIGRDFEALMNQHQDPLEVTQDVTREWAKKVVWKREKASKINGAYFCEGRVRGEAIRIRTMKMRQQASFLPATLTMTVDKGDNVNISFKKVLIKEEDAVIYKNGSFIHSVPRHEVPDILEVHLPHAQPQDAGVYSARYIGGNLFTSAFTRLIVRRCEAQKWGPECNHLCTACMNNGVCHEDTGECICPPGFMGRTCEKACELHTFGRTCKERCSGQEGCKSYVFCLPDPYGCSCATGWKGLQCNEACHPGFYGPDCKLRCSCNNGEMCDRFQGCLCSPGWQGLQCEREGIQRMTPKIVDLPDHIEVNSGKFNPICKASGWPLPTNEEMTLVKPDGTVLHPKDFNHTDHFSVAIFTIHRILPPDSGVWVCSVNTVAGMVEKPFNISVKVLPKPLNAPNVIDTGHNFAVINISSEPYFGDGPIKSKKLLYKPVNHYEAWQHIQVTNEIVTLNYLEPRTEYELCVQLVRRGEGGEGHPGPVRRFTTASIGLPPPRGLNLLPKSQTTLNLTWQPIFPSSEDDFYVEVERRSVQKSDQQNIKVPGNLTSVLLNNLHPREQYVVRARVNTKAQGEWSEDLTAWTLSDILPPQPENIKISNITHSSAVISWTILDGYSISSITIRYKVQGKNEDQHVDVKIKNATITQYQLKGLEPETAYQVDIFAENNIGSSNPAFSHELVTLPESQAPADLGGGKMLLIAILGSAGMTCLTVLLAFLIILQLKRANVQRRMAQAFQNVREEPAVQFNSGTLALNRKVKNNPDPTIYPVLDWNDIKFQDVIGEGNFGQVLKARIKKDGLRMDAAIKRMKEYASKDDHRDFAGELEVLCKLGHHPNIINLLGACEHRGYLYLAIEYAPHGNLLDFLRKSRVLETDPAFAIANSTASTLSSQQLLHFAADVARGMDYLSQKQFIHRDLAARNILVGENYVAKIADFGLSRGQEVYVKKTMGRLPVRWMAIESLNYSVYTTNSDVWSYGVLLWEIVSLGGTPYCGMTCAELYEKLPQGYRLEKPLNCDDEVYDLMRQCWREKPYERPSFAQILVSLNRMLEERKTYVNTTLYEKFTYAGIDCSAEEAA
# MPSK1, sequence (O75716 whole entry, species assumed): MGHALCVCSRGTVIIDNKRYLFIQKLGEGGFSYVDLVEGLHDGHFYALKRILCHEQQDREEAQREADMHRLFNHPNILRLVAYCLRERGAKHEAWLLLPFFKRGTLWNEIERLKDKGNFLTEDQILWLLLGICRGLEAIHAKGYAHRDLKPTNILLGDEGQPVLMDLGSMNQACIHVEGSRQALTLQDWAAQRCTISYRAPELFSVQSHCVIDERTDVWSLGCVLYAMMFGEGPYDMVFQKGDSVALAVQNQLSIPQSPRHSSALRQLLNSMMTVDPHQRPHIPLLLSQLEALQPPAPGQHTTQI
# OSR1, sequence (O95747 whole entry): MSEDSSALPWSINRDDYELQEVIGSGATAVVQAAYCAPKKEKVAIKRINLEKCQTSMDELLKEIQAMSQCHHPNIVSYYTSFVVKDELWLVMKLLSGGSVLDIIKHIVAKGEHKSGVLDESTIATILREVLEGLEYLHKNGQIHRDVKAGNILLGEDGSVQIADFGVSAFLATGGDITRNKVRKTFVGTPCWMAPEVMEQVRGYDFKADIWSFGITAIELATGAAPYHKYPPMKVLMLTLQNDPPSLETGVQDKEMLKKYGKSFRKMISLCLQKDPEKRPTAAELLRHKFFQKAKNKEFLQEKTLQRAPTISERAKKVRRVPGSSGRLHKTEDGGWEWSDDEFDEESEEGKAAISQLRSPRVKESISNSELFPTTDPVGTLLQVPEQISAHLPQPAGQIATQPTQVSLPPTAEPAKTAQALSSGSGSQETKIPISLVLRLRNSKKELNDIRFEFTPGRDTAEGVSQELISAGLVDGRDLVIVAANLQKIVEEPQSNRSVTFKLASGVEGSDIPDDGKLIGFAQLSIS
Compound,remaining activity at 100 µM (OSR1; [1]) [%],remaining activity at 100 µM (BRSK1; [1]) [%],remaining activity at 100 µM (GCK; [1]) [%],remaining activity at 100 µM (TIE2; [1]) [%],remaining activity at 100 µM (MPSK1; [1]) [%],"residual kinase activity, OSR1 (OSR1; [1])","residual kinase activity, ULK2 (ULK2; [1])","residual kinase activity, BRSK1 (BRSK1; [1])","residual kinase activity, GCK (GCK; [1])","residual kinase activity, TIE2 (TIE2; [1])","residual kinase activity, MPSK1 (MPSK1; [1])",other results
"CC(=O)Nc1nc2cc(O)ccc2s1 [Compound 01-66, N-(5-hydroxybenzo[d]thiazol-2-yl)acetamide]",–,–,–,–,–,–,–,–,–,–,–,remaining activity at 100 µM (OSR1): 95%; remaining activity at 100 µM (BRSK1): 48%; remaining activity at 100 µM (GCK): 32%; remaining activity at 100 µM (TIE2): 75%; remaining activity at 100 µM (MPSK1): 80%
CC(=O)Nc1nc2cc(F)ccc2s1 [Compound 03-77],109,78,8,112,86,–,–,–,–,–,–,remaining activity at 100 µM (ULK2; [1]): 83%
CC(=O)Nc1nc2cc(C)ccc2s1 [Compound 03-76],–,–,–,–,–,116,88,75,35,95,91,–
O=C(Nc1nc2ccc(O)cc2s1)c1cccnc1 [Compound 08-44],–,–,–,–,–,51,84,45,31,81,81,–
O=C(Nc1nc2ccc(O)cc2s1)c1ccccn1 [Compound 03-12],–,–,–,–,–,59,87,63,29,76,90,–
CC(=O)Nc1nc2ccccc2s1 [Compound 03-32],–,–,–,–,–,112,92,95,39,112,86,–
CC(=O)Nc1nc2cc(C(F)(F)F)ccc2s1 [Compound 03-73],113,83,36,92,97,–,–,–,–,–,–,remaining activity at 100 µM (ULK2; [1]): 88%
"CC(=O)Nc1cccc(NC(=O)c2nc3ccc(O)cc3s2)c1 [Compound 03-07, N-(3-acetamidophenyl)-6-hydroxybenzo[d]thiazole-2-carboxamide]",–,–,–,–,–,–,–,–,–,–,–,remaining activity at 100 µM (OSR1; [2]): 87%; remaining activity at 100 µM (ULK2; [2]): 81%; remaining activity at 100 µM (BRSK1; [2]): 52%; remaining activity at 100 µM (GCK; [2]): 35%; remaining activity at 100 µM (TIE2; [2]): 78%; remaining activity at 100 µM (MPSK1; [2]): 108%
O=C(Nc1nc2cc(O)ccc2s1)c1cccnc1 [Compound 03-33],–,–,–,–,–,109,85,83,25,100,101,–
O=C(Nc1nc2ccc(O)cc2s1)c1ccccc1 [Compound 03-60],–,–,–,–,–,82,69,43,4,41,106,–
CC(=O)Nc1nc2ccc(C(F)(F)F)cc2s1 [Compound 01-90],75,83,15,60,105,–,–,–,–,–,–,remaining activity at 100 µM (ULK2; [1]): 78%
O=C(Nc1nc2ccc(O)cc2s1)c1ccncc1 [Compound 08-42],–,–,–,–,–,72,63,56,27,80,77,–
O=C(Nc1nc2cc(O)ccc2s1)c1ccccn1 [Compound 03-13],–,–,–,–,–,97,56,95,39,106,102,–
COc1ccc2sc(NC(C)=O)nc2c1 [Compound 03-21],119,85,3,91,97,–,–,–,–,–,–,remaining activity at 100 µM (ULK2; [1]): 86%
CC(=O)Nc1nc2ccc(C#N)cc2s1 [Compound 01-94],79,62,11,85,94,–,–,–,–,–,–,remaining activity at 100 µM (ULK2; [1]): 68%
CC(=O)Nc1nc2ccc(O)cc2s1 [Compound 01-71],78,16,19,65,77,–,–,–,–,–,–,–
O=C(Nc1nc2cc(O)ccc2s1)c1ccncc1 [Compound 03-11],–,–,–,–,–,90,86,70,33,84,73,–
